From ChEMBL document CHEMBL3108693, “Design, synthesis, and osteogenic activity of daidzein analogs on human mesenchymal stem cells” (2014)
The source made the active and inactive calls. The rule behind the calls is not given here.

How the values were obtained:
Format in all cases: functional
[1] = (§1) Induction of osteogenic activity in human MSC assessed as cell differentiation at 1 uM after 14 days by alizarin red staining-based spectrometry relative to vehicle-treated control
MSC [2] = experiment: Induction of osteogenic activity in human MSC assessed as cell differentiation after 14 days by alizarin red staining-based spectrometry relative to vehicle-treated control
MSC [3] = experiment: Induction of osteogenic activity in human MSC assessed as cell differentiation at 1 uM after 7 days by alizarin red staining-based spectrometry relative to vehicle-treated control
MSC [4] = experiment: Induction of osteogenic activity in human MSC assessed as increase in Cola1 level at 1 uM after 14 days by quantitative RT-PCR analysis relative to control
MSC [5] = experiment: Induction of osteogenic activity in human MSC assessed as increase in cbfa1 level at 1 uM after 14 days by quantitative RT-PCR analysis relative to control
MSC [6] = experiment: Induction of osteogenic activity in human MSC assessed as increase in ALP level at 1 uM after 14 days by quantitative RT-PCR analysis relative to control
MSC [7] = experiment: Induction of osteogenic activity in human MSC assessed as increase in OP level at 1 uM after 14 days by quantitative RT-PCR analysis relative to control
MSC [8] = experiment: Induction of osteogenic activity in human MSC assessed as increase in ON level at 1 uM after 14 days by quantitative RT-PCR analysis relative to control
MSC [9] = experiment: Induction of osteogenic activity in human MSC assessed as increase in Dlx5 level at 1 uM after 14 days by quantitative RT-PCR analysis relative to control
MSC [10] = experiment: Induction of osteogenic activity in human MSC assessed as increase in cFOS level at 1 uM after 14 days by quantitative RT-PCR analysis relative to control
MSC [11] = experiment: Induction of osteogenic activity in human MSC assessed as increase in Sp7 level at 1 uM after 14 days by quantitative RT-PCR analysis relative to control
MSC [12] = experiment: Induction of osteogenic activity in human MSC assessed as increase in IGF1 level at 1 uM after 14 days by quantitative RT-PCR analysis relative to control
MSC [13] = experiment: as §1
MSC [14] = experiment: Induction of osteogenic activity in human MSC assessed as cell differentiation at 10 nM after 14 days by alizarin red staining-based spectrometry

SMILES | fold change (FC) [1] | Activity (MSC [2]) | also measured
CCCCOc1ccc2c(=O)c(-c3ccc(O)cc3)coc2c1 | 1.3 | Dose-dependent effect | –
CCCCOc1ccc2c(c1)OCC(c1ccc(O)cc1)C2 (centres undefined) | – | Dose-dependent effect | –
COc1ccc(C(=O)Nc2ccc(O)cc2)c(OC)c1 | 1.3 | Dose-dependent effect | –
CN(C)CCOc1ccc2c(=O)c(-c3ccc(O)cc3)coc2c1 | – | Dose-dependent effect | –
CC1(C)CCc2c(ccc3c2OCC(c2ccc(O)cc2)C3=O)O1 (centres undefined) | 1.6 | Dose-dependent effect | –
CCOc1ccc2c(=O)c(-c3ccc(O)cc3)coc2c1 | 1.6 | Dose-dependent effect | –
CC1(C)CCc2c(ccc3c2OCC(c2ccc(O)cc2)C3)O1 (centres undefined) | – | Dose-dependent effect | –
CC1(C)C=Cc2c(ccc3c(=O)c(-c4ccc(B5OC(C)(C)C(C)(C)O5)cc4)coc23)O1 | – | Dose-dependent effect | –
O=c1c(-c2ccc(O)cc2)coc2cc(OC3CCCC3)ccc12 | 1.3 | Dose-dependent effect | Activity (MSC [3]): Active
COc1ccc(C(=O)Nc2ccc(OCC(C)C)cc2)c(OC)c1 | 1.6 | Dose-dependent effect | –
CCCCCCOc1ccc2c(=O)c(-c3ccc(O)cc3)coc2c1 | 1.3 | Dose-dependent effect | –
C#CCOc1ccc2c(=O)c(-c3ccc(O)cc3)coc2c1 | 1.6 | Dose-dependent effect | –
Cc1cc2c(ccc3c(=O)c(-c4ccc(O)cc4)coc32)o1 | 1.6 | Dose-dependent effect | –
CC1(C)C=Cc2cc3c(cc2O1)OCC(c1ccc(O)cc1)C3 (centres undefined) | 1.3 | Dose-dependent effect | –
CCCOc1ccc2c(=O)c(-c3ccc(O)cc3)coc2c1 | 1.3 | Dose-dependent effect | Activity (MSC [4]): Active; Activity (MSC [5]): inactive; Activity (MSC [6]): Active; Activity (MSC [7]): Active; Activity (MSC [8]): inactive; Activity (MSC [9]): inactive; Activity (MSC [10]): inactive; Activity (MSC [3]): Active; Activity (MSC [11]): Active; Activity (MSC [12]): Active
O=c1c(-c2ccc(O)cc2)coc2cc(OCCN3CCCCC3)ccc12 | >2.4 | Dose-dependent effect | –
CC(C)Oc1ccc2c(=O)c(-c3ccc(O)cc3)coc2c1 | 1.6 | Dose-dependent effect | –
CC1(C)C=Cc2c(ccc3c(=O)c(-c4ccc(O)cc4)coc23)O1 | – | Dose-dependent effect | –
O=c1c(-c2ccc(O)cc2)coc2cc(OCCN3CCCC3)ccc12 | – | Dose-dependent effect | –
COc1ccc(NC(=O)c2ccc(OC)cc2OC)cc1 | 1.3 | Dose-dependent effect | –
O=c1c(-c2ccc(O)cc2)coc2cc(O)ccc12 | – | Dose-dependent effect | Activity (MSC [13]): Active
CC#C[C@]1(O)CC[C@H]2[C@@H]3CCc4cc(O)ccc4[C@H]3CC[C@@]21C | – | – | Activity (MSC [14]): Active
CC(C)COc1ccc2c(=O)c(-c3ccc(O)cc3)coc2c1 | 1.3 | Dose-dependent effect | Activity (MSC [3]): Active
C=CCOc1ccc2c(=O)c(-c3ccc(O)cc3)coc2c1 | 1.3 | Dose-dependent effect | Activity (MSC [3]): Active
